Measured values taken from patent publication US20260085034A1, “N-(BENZHYDRYL)CYCLOALKYLCARBOXAMIDE DERIVATIVES AS INHIBITORS OF GLYCOGEN SYNTHASE 1 (GYS1) AND METHODS OF USE THEREOF” (Maze Therapeutics, Inc., priority 2022, published 2026).

Assays:
[1] = system: glycogen synthesis in HeLa cells (hGYS1); assay: GYS1 cell based assay (glycogen digestion, Glucose-glo); details: Homo sapiens, 24 h incubation, 20 mM glucose, geometric mean of at least 2 runs, read-out: Cellular IC50
From the text: The GYS1 cell based assay is a bioluminescent assay that quantifies the glucose resulting from glycogen digestion; the quantified glucose is an indirect measure of GYS1 glycogen synthesis. Newly synthesized glycogen is digested using Glucoamylase; the resulting glucose is quantified by using the Glucose-glo assay kit from Promega. Glucose-glo works by coupling glucose oxidation and NADH production with a bioluminescent system that is activated with NADH. Glucose is oxidized by Glucose dehydrogenase and the reaction reduces NAD+ to NADH; NADH activates Reductase which reduces a pro-luciferin Reductase Substrate to luciferin. Luciferin is detected in a luciferase reaction using Ultra-Glo rLuciferase and ATP, and the luminesce produced is proportional to the glucose in the sample. The luminescence is measured as a single point read in a plate reader.
Compounds that inhibit the hGYS1 enzyme and, subsequently, the glycogen synthesis in cells, were tested using assay ready plates (white, clear bottom 384 well plates) in a final DMSO reaction volume of 1% DMSO. Compounds in the assay ready plates were mixed with media with no additives, except for 20 mM glucose prior to cell addition. HeLa cells were starved in media with no additives, except for 1× Glutamax for 24 h. Starved HeLa cells were plated, in a 1:1 ratio to the media in the assay ready plate and incubated for 24 h at 37° C. and 5% CO2. Cells were washed in 1×PBS buffer and lysed in lysis buffer containing 50% 1×PBS and 25% 0.3 N HCl of the final volume in the well or reaction volume; cells were incubated with lysis buffer for 10 minutes and quenched with the remaining 25% of the reaction volume that consisted of 450 mM Tris pH 8.0. Lysates were mixed in a 1:1 ratio with Glucoamylase in 100 mM Sodium Acetate buffer, pH 5.3; the mixture was incubated for 1 h at 37° C. The digested lysate was mixed in a 1:1 ratio with Glucose-glo detection mixture as per vendor recommendations (Luciferase detection buffer, Reductase, Reductase substrate, Glucose dehydrogenase, and NAD) in read-out plates (solid white 384-well plates) and incubated for 1 h at RT. The plates were read using a plate reader with luminescence capabilities. Each compound concentration Relative Luminescence Unit (RLU) was averaged and normalized to the average RLU of the positive and negative controls to obtain a percentage inhibition. The normalized data vs. concentration was plotted; to determine the half-maximal concentration (IC50), the Levenberg-Marquardt algorithm was used to fit a Hill equation to the dose response data.
(§1) The results are shown in Table 4 below, which reports the IC50 of each compound. Unless otherwise specified, IC50 values are reported as the geometric mean of at least 2 assay runs on separate days. As shown in the table below, the compounds of the present invention are potent inhibitors of human GYS1. Unless otherwise specified, IC50 values are reported as the geometric mean of at least two assay runs on separate days. Each run represents the average of a technical replicate, where each compound was assayed twice in the same plate.

[2] = target: T1, recombinant hGYS1/GN1 protein (Homo sapiens, UniProt P13807); assay: GYS1 coupled enzyme assay (PK/LDH); format: biochemical; details: geometric mean of at least 2 assay runs; NADH absorbance at 340 nm
T1 sequence (P13807 1-737): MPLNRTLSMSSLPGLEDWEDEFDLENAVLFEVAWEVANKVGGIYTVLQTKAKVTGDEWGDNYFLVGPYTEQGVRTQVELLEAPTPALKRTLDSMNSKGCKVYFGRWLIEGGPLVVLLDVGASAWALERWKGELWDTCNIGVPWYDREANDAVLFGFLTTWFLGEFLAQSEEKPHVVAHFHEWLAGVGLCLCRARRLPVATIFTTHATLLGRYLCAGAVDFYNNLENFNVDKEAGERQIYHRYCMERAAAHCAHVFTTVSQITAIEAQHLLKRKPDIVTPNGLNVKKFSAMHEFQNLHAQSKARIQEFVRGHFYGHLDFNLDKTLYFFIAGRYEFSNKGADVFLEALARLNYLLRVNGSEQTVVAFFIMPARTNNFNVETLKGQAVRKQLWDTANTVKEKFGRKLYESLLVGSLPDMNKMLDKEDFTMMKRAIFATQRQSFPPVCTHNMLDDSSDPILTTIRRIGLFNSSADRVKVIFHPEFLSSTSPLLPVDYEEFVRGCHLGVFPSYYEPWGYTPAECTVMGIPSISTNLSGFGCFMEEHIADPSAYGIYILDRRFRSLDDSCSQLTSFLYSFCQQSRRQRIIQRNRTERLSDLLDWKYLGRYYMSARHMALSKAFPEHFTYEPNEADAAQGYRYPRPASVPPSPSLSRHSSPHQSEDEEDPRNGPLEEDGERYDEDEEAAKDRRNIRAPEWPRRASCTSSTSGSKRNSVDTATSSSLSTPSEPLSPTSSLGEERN
T1 sequence (P46976 1-350 partner): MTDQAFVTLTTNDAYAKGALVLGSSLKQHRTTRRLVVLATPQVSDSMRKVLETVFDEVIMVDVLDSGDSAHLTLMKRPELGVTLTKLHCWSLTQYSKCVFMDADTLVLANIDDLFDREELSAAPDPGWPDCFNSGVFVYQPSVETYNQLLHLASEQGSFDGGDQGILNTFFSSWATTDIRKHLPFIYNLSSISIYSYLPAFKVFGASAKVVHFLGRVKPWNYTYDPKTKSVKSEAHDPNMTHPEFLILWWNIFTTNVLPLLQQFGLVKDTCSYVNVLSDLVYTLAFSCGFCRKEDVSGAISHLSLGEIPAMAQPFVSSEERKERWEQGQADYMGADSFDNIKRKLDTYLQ
How it was run: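 Recombinant hGYS1/GN1 (50 nM) with 0.8 mM UDP-glucose, 0.2% glycogen and 1 mM glucose-6-phosphate in Tris pH 7.5, 2.5% DMSO. UDP formation coupled via PK/LDH to NADH oxidation, read at 340 nm over 10 min. Control-normalized slopes fit to Hill equation; IC50 as geometric mean of ≥2 runs.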

[3] = target: T2, recombinant hGYS2/GN1 protein (Homo sapiens, UniProt P54840); assay: GYS2 coupled enzyme assay (PK/LDH); format: biochemical; details: geometric mean of at least 2 assay runs; NADH absorbance at 340 nm
T2 sequence (P54840 1-703): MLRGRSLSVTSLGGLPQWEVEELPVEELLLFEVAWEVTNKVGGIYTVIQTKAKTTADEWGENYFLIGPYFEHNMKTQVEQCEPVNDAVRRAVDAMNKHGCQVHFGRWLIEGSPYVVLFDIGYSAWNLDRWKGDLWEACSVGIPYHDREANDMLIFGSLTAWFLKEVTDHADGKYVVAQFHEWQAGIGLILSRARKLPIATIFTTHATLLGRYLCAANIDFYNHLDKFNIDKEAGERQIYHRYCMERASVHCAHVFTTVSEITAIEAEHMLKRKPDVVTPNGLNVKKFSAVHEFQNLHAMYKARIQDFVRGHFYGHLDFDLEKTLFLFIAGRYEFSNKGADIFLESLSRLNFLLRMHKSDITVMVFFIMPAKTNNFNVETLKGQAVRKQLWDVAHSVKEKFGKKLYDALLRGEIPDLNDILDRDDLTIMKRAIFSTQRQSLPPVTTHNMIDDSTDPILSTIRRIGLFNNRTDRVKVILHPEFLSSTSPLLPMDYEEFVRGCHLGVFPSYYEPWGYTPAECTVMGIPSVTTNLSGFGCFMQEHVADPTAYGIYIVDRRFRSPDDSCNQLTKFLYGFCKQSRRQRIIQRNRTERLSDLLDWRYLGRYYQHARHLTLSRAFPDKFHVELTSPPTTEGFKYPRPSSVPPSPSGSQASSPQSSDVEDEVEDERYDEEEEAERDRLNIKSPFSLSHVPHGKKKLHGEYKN
T2 sequence (P46976 1-350 partner): T1 sequence (P46976 1-350 partner)
From the text: The GYS2 coupled enzyme assay is a kinetic biochemical assay that indirectly quantifies the rate of glycogen synthesis by coupling the conversion of GYS2 substrate UDP-glucose into UDP with downstream enzymatic reactions. UDP is released from UDP-glucose as glucose monomers are linked into the growing glycogen strand by GYS2. The coupled assay then proceeds with pyruvate kinase utilizing UDP and phospho(enol)pyruvate (PEP) to form pyruvate. Lactate dehydrogenase then converts pyruvate and NADH into lactate and NAD+. Oxidation of NADH to NAD+ can be measured continuously with a plate reader by quantifying the decrease in NADH absorbance at 340 nm over time.
Compounds that inhibit the hGYS2 enzyme and, subsequently, the downstream conversion of NADH to NAD+, were tested using assay ready plates (black, clear bottom 384 well plates) in a final DMSO reaction volume of 2.5% DMSO. The Assay Buffer contained 50 mM Tris pH 7.5, 2 mM MgCl2, and 100 mM KCl. Fresh stocks of BSA at a final concentration of 0.02% and TCEP 1 mM were added before splitting buffer into hGYS2 buffer and substrate buffer. To the hGYS2 buffer, rabbit liver glycogen was added at a final concentration of 0.2% glycogen. Glucose-6-Phosphate was added at 2 mM, recombinant hGYS2/GN1 protein was added at 200 nM to the substrate buffer, phosphoenolpyruvate (PEP) was added at 2 mM, UDP-Glucose was added at 2 mM, NADH was added at 0.6 mM, and Pyruvate Kinase/Lactate Dehydrogenase was added at 20 units/mL. The reaction was initiated by mixing hGYS2 buffer and substrate buffer at a 1:1 ratio. Both buffers were plated using a liquid dispensing device with hGYS2 buffer plated first followed by the substrate buffer. Plates were spun briefly to eliminate air bubbles and are immediately read in continuous mode at an absorbance of 340 nm, for 10 time points in one-minute increments, for a total of 10 minutes. The slope from these 10 time points was normalized to the positive and negative control wells. The duplicate % inhibition values are then averaged and fit to a Hill equation for dose response according to the Levenberg-Marquardt algorithm with the Hill equation maximum set to 100 and the minimum set to 0.
as §1, with “in Table 5 below, which” for “in Table 4 below, which”, “invention are not potent inhibitors” for “invention are potent inhibitors”, “of human GYS2.[…]” for “of human GYS1. Unless otherwise”

SMILES	IC50 [1] [µM]	IC50 [2] [µM]	IC50 [3] [µM]
CC(C)c1ccc([C@@H](NC(=O)[C@H]2C[C@@H]2F)c2cccc3[nH]c(=O)[nH]c23)cc1F (single isomer, unassigned) [compound 5]	1.06	0.131	
CC(C)c1ccc([C@@H](NC(=O)C2CC2)c2ccccc2NC(=O)C2COC2)cc1 [compound 60, (R)-N-(2-(cyclopropanecarboxamido(4-isopropylphenyl)methyl)phenyl)oxetane-3-carboxamide]		0.521	> 100
CC(C)c1ccc([C@@H](NC(=O)C2CC2)c2cccc(O)c2)cc1 [compound 62, (R)-N-((3-hydroxyphenyl)(4-isopropylphenyl)methyl)cyclopropanecarboxamide]		0.376	> 100
COc1cccc([C@H](NC(=O)C2CC2)c2ccc(C(C)C)cc2)c1C [compound 63, (R)-N-((4-isopropylphenyl)(3-methoxy-2-methylphenyl)methyl)cyclopropanecarboxamide]		1.43	> 100
CC(C)c1ccc([C@@H](NC(=O)C2CC2)c2ccccc2O)cc1 [compound 67, (R)-N-((2-hydroxyphenyl)(4-isopropylphenyl)methyl)cyclopropanecarboxamide]		0.293	> 100
CC(C)c1ccc([C@@H](NC(=O)C2CC2)c2ccc(O)cc2)cc1 [compound 68, (R)-N-((4-hydroxyphenyl)(4-isopropylphenyl)methyl)cyclopropanecarboxamide]		0.663	> 97.4
COc1cccc([C@H](NC(=O)C2CC2)c2ccc(C(C)C)cc2)c1 [compound 70, (R)-N-((4-isopropylphenyl)(3-methoxyphenyl)methyl)cyclopropanecarboxamide]		0.786	> 100
COc1ccc([C@H](NC(=O)C2CC2)c2ccc(C(C)C)cc2)cc1 [compound 72, (R)-N-((4-isopropylphenyl)(4-methoxyphenyl)methyl)cyclopropanecarboxamide]		2.68	> 100

The remaining lines, values ahead:

IC50 [1] [µM]	IC50 [2] [µM]	IC50 [3] [µM]	SMILES
1.51	0.055		CC(C)c1ccc([C@@H](NC(=O)[C@H]2C[C@@H]2F)c2ccc3cn[nH]c3c2)nc1F (single isomer, unassigned) [compound 3]
2.79	0.156		CC(C)c1ccc([C@@H](NC(=O)[C@H]2C[C@@H]2F)c2cccc(-c3ccn[nH]3)c2)nc1F (single isomer, unassigned) [compound 4]
6.52	1.14		O=C(N[C@@H](c1ccccc1)c1ccc(C2CC2)c(F)n1)[C@H]1C[C@@H]1F [compound 2, (1R,2S)-N-((S)-(5-cyclopropyl-6-fluoropyridin-2-yl)(phenyl)methyl)-2-fluorocyclopropane-1-carboxamide]
	0.706	> 100	CC(C)c1ccc([C@@H](NC(=O)C2CC2)c2ccccc2)cc1 [compound 73, (S)-N-((4-isopropylphenyl)(phenyl)methyl)cyclopropanecarboxamide]
